Among the data in the supplement of paper PMC10307832 are relative viability values, retold here.

Assay in all cases: relative viability (nuclei count vs DMSO), 5 days (fraction); higher = more cells survive
Compound in the assay “Dactolisib + Olaparib”: Cn1c(=O)n(-c2ccc(C(C)(C)C#N)cc2)c2c3cc(-c4cnc5ccccc5c4)ccc3ncc21 [Dactolisib] + O=C(c1cc(Cc2n[nH]c(=O)c3ccccc23)ccc1F)N1CCN(C(=O)C2CC2)CC1 [Olaparib] (partner 8 µM)
In short, it runs like this: (§1)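 Medians of duplicate plates are given as relative viability. That measure is the nuclei count in treated wells divided by the count in vehicle wells. Counts were taken on 4× images of lung cancer cell lines in 1536-well plates, 5 days after pin-tool dosing the day after seeding with one drug alone or a fixed anchor-drug dose plus five library-drug doses (not always all listed) in √10 steps.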

Compound in the assay “AZ505 + Tozasertib”: C1CCC(CC1)N(CCNCCC2=C3C(=C(C=C2)O)NC(=O)CO3)C(=O)CCNCCC4=CC(=C(C=C4)Cl)Cl [AZ505] + Cc1cc(Nc2cc(N3CCN(C)CC3)nc(Sc3ccc(NC(=O)C4CC4)cc3)n2)n[nH]1 [Tozasertib] (partner 0.1 µM)
In short, it runs like this: as §1

Compound in the assay “Dactolisib + Dasatinib”: Cn1c(=O)n(-c2ccc(C(C)(C)C#N)cc2)c2c3cc(-c4cnc5ccccc5c4)ccc3ncc21 [Dactolisib] + Cc1nc(Nc2ncc(C(=O)Nc3c(C)cccc3Cl)s2)cc(N2CCN(CCO)CC2)n1 [Dasatinib] (partner 0.075 µM)
In short, it runs like this: as §1

Compound in the assay “Dactolisib + Bortezomib”: Cn1c(=O)n(-c2ccc(C(C)(C)C#N)cc2)c2c3cc(-c4cnc5ccccc5c4)ccc3ncc21 [Dactolisib] + CC(C)C[C@H](NC(=O)[C@H](Cc1ccccc1)NC(=O)c1cnccn1)B(O)O [Bortezomib] (partner 0.002 µM)
The essentials:
as §1

As to UMC-11, the relative viability was 0.36 in the assay with Dactolisib + Olaparib (first compound 0.002 µM); 0.317 in the assay with Dactolisib + Olaparib (first compound 0.006325 µM); 0.306 with Dactolisib + Olaparib (first compound 0.02 µM); 0.202 with Dactolisib + Olaparib (first compound 0.06325 µM); 0.193 with Dactolisib + Olaparib (first compound 0.2 µM); 0.189 in the assay with AZ505 + Tozasertib (first compound 0.08 µM). The relative viability came to 0.206 with AZ505 + Tozasertib (first compound 0.253 µM); 0.188 with AZ505 + Tozasertib (first compound 0.8 µM); 0.196 with AZ505 + Tozasertib (first compound 2.53 µM); 0.205 with AZ505 + Tozasertib (first compound 8 µM); 0.496 with Dactolisib + Dasatinib (first compound 0.002 µM); 0.419 with Dactolisib + Dasatinib (first compound 0.006325 µM). Further, the relative viability with Dactolisib + Dasatinib (first compound 0.02 µM) came out at 0.37; with Dactolisib + Dasatinib (first compound 0.06325 µM), 0.253; with Dactolisib + Dasatinib (first compound 0.2 µM) it was 0.219; with Dactolisib + Bortezomib (first compound 0.002 µM), 0.732; with Dactolisib + Bortezomib (first compound 0.006325 µM) it was 0.649; in the assay with Dactolisib + Bortezomib (first compound 0.02 µM), 0.57. Moreover, the relative viability turned out to be 0.261 with Dactolisib + Bortezomib (first compound 0.06325 µM) and 0.18 with Dactolisib + Bortezomib (first compound 0.2 µM).
